Measured values: the supplement of paper PMC11061612

Columns and labels:
Assay in all cases: Bliss excess, mean over the matrix (fraction); higher = more synergy
[1] = system: NCI-H1993 (Lung Adenocarcinoma)
Outline: (§1)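 After 24 hours at 37°C and 5% CO2 in 1536-well plates, cells in DMEM/F12 or RPMI plus 10% FBS received two-drug dose matrices for 72 hours. Viability came from CellTiter-Glo 2.0 luminescence and was scaled as inhibition, anchored at 0 by vehicle wells and at 1 by blank wells. Combination Emax is taken as the second-highest inhibition in the matrix, and Bliss excess as the observed combination effect less EA + EB − EA·EB, with EA and EB the single-agent effects.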

[2] = system: MDA-MB-453 (Breast Carcinoma)
Outline: as §1

[3] = system: ML-2 (Acute Myeloid Leukemia)
Outline: as §1

[4] = system: Mo-T (Other Blood Carcinomas)
Outline: as §1

[5] = system: NCI-H2122 (Lung Adenocarcinoma)
Outline: as §1

[6] = system: KGN (Other Solid Carcinomas)
Outline: as §1

[7] = system: EFO-21 (Ovarian Carcinoma)
Outline: as §1

[8] = system: OACM5-1 (Esophageal Adenocarcinoma)
Outline: as §1

[9] = system: Hey (Ovarian Carcinoma)
Outline: as §1

[10] = system: EJM (Plasma Cell Myeloma)
Outline: as §1

[11] = system: KOPN-8 (B-Lymphoblastic Leukemia)
Outline: as §1

[12] = system: SW982 (Other Solid Carcinomas)
Outline: as §1

[13] = system: HCC2998 (Colorectal Carcinoma)
Outline: as §1

[14] = system: COLO-679 (Melanoma)
Outline: as §1

[15] = system: SK-N-AS (Neuroblastoma)
Outline: as §1

[16] = system: NCI-H650 (Lung Adenocarcinoma)
Outline: as §1

[17] = system: HAL-01 (B-Lymphoblastic Leukemia)
Outline: as §1

[18] = system: MOG-G-UVW (Low Grade Glioma)
Outline: as §1

[19] = system: CADO-ES1 (Ewing's Sarcoma)
Outline: as §1

[20] = system: G-401 (Other Solid Carcinomas)
Outline: as §1

SMILES | Bliss excess [1] | Bliss excess [2] | Bliss excess [3] | Bliss excess [4] | Bliss excess [5] | Bliss excess [6] | Bliss excess [7] | Bliss excess [8] | Bliss excess [9] | Bliss excess [10] | Bliss excess [11] | Bliss excess [12] | Bliss excess [13] | Bliss excess [14] | Bliss excess [15] | Bliss excess [16] | Bliss excess [17] | Bliss excess [18] | Bliss excess [19] | Bliss excess [20]
CN(C)CCCOc1ccc(-c2ccc3ncc4c(c3c2)n(C2CCOCC2)c(=O)n4C)cn1 [AZD0156] + O=C(c1cc(Cc2n[nH]c(=O)c3ccccc23)ccc1F)N1CCN(C(=O)C2CC2)CC1 [Olaparib] (first compound max 3 µM, partner max 3 µM) | -0.0191 | -0.0266 | 0.117 | -0.046 | 0.109 | 0.156 | -0.0149 | -0.0162 | 0.106 | 0.0719 | 0.31 | 0.0903 | 0.0824 | -0.0013 | -0.0959 | -0.014 | 0.191 | 0.204 | 0.285 | 0.0269
CN(C)CCCOc1ccc(-c2ccc3ncc4c(c3c2)n(C2CCOCC2)c(=O)n4C)cn1 [AZD0156] + CCN(CCO)CCCOc1ccc2c(Nc3cc(CC(=O)Nc4cccc(F)c4)[nH]n3)ncnc2c1 [AZD2811] (first compound max 1 µM, 7x7, partner max 1 µM) | -0.0335 | -0.0208 | -0.0594 | -0.0898 | 0.0471 | -0.0306 | -0.0506 | -0.0366 | 0.0051 | 0.0008 | 0.0535 | -0.0042 | 0.0314 | -0.0093 | -0.014 | -0.0159 | 0.0135 | 0.045 | 0.0131 | -0.0279
Cn1cnc2c(F)c(Nc3ccc(Br)cc3Cl)c(C(=O)NOCCO)cc21 [Selumetinib] + C[C@@H]1COCCN1C2=NC(=NC(=C2)C3(CC3)[S@](=N)(=O)C)C4=C5C=CNC5=NC=C4 [AZD6738] (first compound max 10 µM, 7x7, partner max 10 µM) | -0.0274 | -0.05 | -0.0373 | -0.0055 | 0.0539 | -0.0817 | -0.0192 | -0.0096 | -0.0014 | -0.0321 | -0.154 | -0.0499 | 0.0464 | -0.0526 | -0.0048 | 0.0926 | -0.0541 | -0.0662 | -0.0031 | 0.0257
C=CCn1c(=O)c2cnc(Nc3ccc(N4CCN(C)CC4)cc3)nc2n1-c1cccc(C(C)(C)O)n1 [AZD1775] + C1CN(CCC1(C(=O)N[C@@H](CCO)C2=CC=C(C=C2)Cl)N)C3=NC=NC4=C3C=CN4 [Capivasertib] (first compound max 3 µM, partner max 3 µM) | -0.0096 | -0.0524 | -0.0148 | -0.05 | 0.0752 | -0.0195 | -0.0991 | -0.0553 | -0.0475 | -0.0041 | 0.0369 | -0.0415 | 0.0232 | -0.0625 | -0.0806 | 0.0136 | -0.0528 | -0.0039 | 0.006 | -0.0241
CCc1c2c(nc3ccc(O)cc13)-c1cc3c(c(=O)n1C2)COC(=O)[C@]3(O)CC [SN-38] + CN(C)CCCOc1ccc(-c2ccc3ncc4c(c3c2)n(C2CCOCC2)c(=O)n4C)cn1 [AZD0156] (first compound max 0.3 µM, 7x7, partner max 1 µM) | -0.0008 | -0.0505 | 0.0256 | -0.0527 | 0.151 | -0.0065 | -0.0125 | -0.0642 | 0.0372 | -0.0052 | 0.0362 | -0.0208 | 0.253 | -0.0767 | -0.0061 | -0.0066 | 0.0451 | 0.0727 | 0.0718 | 0.0568
CCN(CCO)CCCOc1ccc2c(Nc3cc(CC(=O)Nc4cccc(F)c4)[nH]n3)ncnc2c1 [AZD2811] + C=CCn1c(=O)c2cnc(Nc3ccc(N4CCN(C)CC4)cc3)nc2n1-c1cccc(C(C)(C)O)n1 [AZD1775] (first compound max 1 µM, partner max 1 µM) | 0.0219 | 0.0236 | -0.102 | -0.0252 | 0.0618 | -0.0196 | -0.062 | 0.0426 | 0.0154 | -0.0443 | 0.0507 | -0.0501 | -0.0014 | -0.0325 | 0.0108 | 0.0178 | 0.0495 | -0.0202 | -0.0086 | 0.0421
COc1nnc2ccc(N3CCC(c4ccc(OCCN5CCN(C)C(=O)[C@H]5C)cc4)CC3)nn12 [AZD5153] + Cn1cnc2c(F)c(Nc3ccc(Br)cc3Cl)c(C(=O)NOCCO)cc21 [Selumetinib] (first compound max 1 µM, 7x7, partner max 10 µM) | -0.0228 | -0.0141 | 0.075 | -0.0656 | 0.0659 | -0.002 | -0.0593 | -0.0306 | -0.0092 | 0.0207 | 0.114 | -0.0039 | 0.0118 | -0.004 | 0.0307 | 0.0339 | 0.0347 | -0.0045 | -0.0469 | -0.0761
CC(=O)c1c(C)c2cnc(Nc3ccc(N4CCNCC4)cn3)nc2n(C2CCCC2)c1=O [Palbociclib] + Cn1cnc2c(F)c(Nc3ccc(Br)cc3Cl)c(C(=O)NOCCO)cc21 [Selumetinib] (first compound max 10 µM, 7x7, partner max 10 µM) | 0.0904 | -0.036 | 0.0685 | -0.0225 | 0.0823 | 0 | -0.0531 | -0.0247 | 0.0222 | -0.0193 | -0.0208 | -0.058 | 0.0041 | 0.0157 | 0.0583 | 0.0058 | 0.0297 | 0.0912 | -0.13 | -0.0428
CN(C)CCCOc1ccc(-c2ccc3ncc4c(c3c2)n(C2CCOCC2)c(=O)n4C)cn1 [AZD0156] + C=CCn1c(=O)c2cnc(Nc3ccc(N4CCN(C)CC4)cc3)nc2n1-c1cccc(C(C)(C)O)n1 [AZD1775] (first compound max 1 µM, partner max 1 µM) | -0.0699 | -0.0736 | -0.014 | -0.0599 | 0.0551 | -0.0028 | -0.0369 | -0.051 | -0.0242 | -0.0266 | -0.0256 | -0.0676 | 0.057 | -0.0433 | -0.0492 | -0.0593 | 0.053 | -0.0525 | 0.0196 | -0.0734
CC1(C)CCC(CN2CCN(c3ccc(C(=O)NS(=O)(=O)c4ccc(NCC5CCOCC5)c([N+](=O)[O-])c4)c(Oc4cnc5[nH]ccc5c4)c3)CC2)=C(c2ccc(Cl)cc2)C1 [Venetoclax] + CCN(CCO)CCCOc1ccc2c(Nc3cc(CC(=O)Nc4cccc(F)c4)[nH]n3)ncnc2c1 [AZD2811] (first compound max 1 µM, 7x7, partner max 1 µM) | -0.0002 | -0.0169 | 0.0167 | -0.125 | -0.0579 | -0.038 | -0.0263 | -0.0406 | 0.0408 | 0.0261 | 0.0169 | -0.0257 | -0.0403 | -0.0608 | -0.0071 | -0.0114 | -0.0133 | -0.0186 | 0.0054 | -0.0473
CCc1c2c(nc3ccc(O)cc13)-c1cc3c(c(=O)n1C2)COC(=O)[C@]3(O)CC [SN-38] + O=C(c1cc(Cc2n[nH]c(=O)c3ccccc23)ccc1F)N1CCN(C(=O)C2CC2)CC1 [Olaparib] (first compound max 0.3 µM, 7x7, partner max 10 µM) | 0.0628 | 0.0456 | 0.0633 | 0.0236 |  | 0.0691 | 0.0601 | 0.0474 | 0.0559 | 0.0404 | 0.0271 | 0.0384 |  | 0.005 | 0.096 |  | 0.0568 | 0.036 | 0.0253 | 
CS(=O)(=O)CCNCc1ccc(-c2ccc3ncnc(Nc4ccc(OCc5cccc(F)c5)c(Cl)c4)c3c2)o1 [Lapatinib] + NC1(c2ccc(-c3nc4ccn5c(=O)[nH]nc5c4cc3-c3ccccc3)cc2)CCC1 [MK-2206] (first compound max 10 µM, 7x7, partner max 10 µM) | -0.0147 | 0.0474 | 0.0017 | 0.0719 |  | 0.0078 | 0.0024 |  |  |  | -0.0586 | -0.0099 |  | -0.031 | -0.0327 | -0.0464 | 0.0687 | 0.0675 |  | 
Cc1c2c(nn1C)CSCc1cc(n(C)n1)CSc1cc(c3ccccc3c1)OCCCc1c(C(=O)O)n(C)c3c-2c(Cl)ccc13 [AZD5991] + Cc1cc2ncnn2cc1Nc1ncc2c(n1)n(C1CCOCC1)c(=O)n2C [AZD7648] (first compound max 1 µM, 7x7, partner max 10 µM) | -0.0225 | -0.0328 | -0.0314 | -0.08 | -0.0559 | -0.0404 | -0.116 |  | -0.015 | 0.0164 | -0.0816 | -0.0232 | -0.0317 | 0.0019 | -0.0554 | -0.0101 | 0.0227 | 0.0048 | -0.0296 | -0.167
Cc1c2c(nn1C)CSCc1cc(n(C)n1)CSc1cc(c3ccccc3c1)OCCCc1c(C(=O)O)n(C)c3c-2c(Cl)ccc13 [AZD5991] + C=CCn1c(=O)c2cnc(Nc3ccc(N4CCN(C)CC4)cc3)nc2n1-c1cccc(C(C)(C)O)n1 [AZD1775] (first compound max 1 µM, partner max 1 µM) | 0.0026 | -0.0091 | -0.0342 | 0.0127 |  | -0.002 | 0.0177 | -0.04 | -0.0325 | 0.0357 | -0.0397 | -0.0549 | 0.0142 | 0.0628 | -0.066 | 0.0397 | -0.0197 | -0.0756 | -0.0308 | 0.0023
C=CCn1c(=O)c2cnc(Nc3ccc(N4CCN(C)CC4)cc3)nc2n1-c1cccc(C(C)(C)O)n1 [AZD1775] + C[C@@H]1COCCN1C2=NC(=NC(=C2)C3(CC3)[S@](=N)(=O)C)C4=C5C=CNC5=NC=C4 [AZD6738] (first compound max 1 µM, partner max 10 µM) | -0.0727 | 0.0214 | 0.0095 | -0.0271 | -0.0303 | -0.0578 | -0.0492 | 0.0994 | 0.0385 | -0.0079 | -0.0006 | -0.019 | 0.0923 | -0.0995 | 0.0189 | 0.0062 |  | 0.0202 | 0.0441 | -0.0293
